According to patent US10160747B2, “Compounds and methods for kinase modulation, and indications therefor” (Plexxikon Inc., priority 2016, dated 2018):

Assays:
[1] = tested on: MOLM-14 F691L (endogenous FLT3 ITD and transfected FLT3 F691L); experiment: MOLM-14 F691L cell proliferation assay (CellTiter-Glo); format: cell-based; conditions: Homo sapiens, MOLM-14, 72 h; 3 d growth, GMean
Method in brief: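 Three-day proliferation at 37 °C/5% CO2 of FLT3-ITD MOLM-14 lines with D835Y or F691L mutation, seeded 1×10^4 per well. Compounds at eight points, top 1 μM final, 0.2% DMSO. ATP luminescence (CellTiter-Glo) gives IC50.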

[2] = biological target: T1, c-KIT (Homo sapiens, UniProt P10721); experiment: c-KIT recombinant enzyme kinase assay (AlphaScreen); format: biochemical; conditions: 100 ATP, 8 pt
T1 construct: purchased Millipore 14-559K
Method in brief: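 Substrate 30 nM biotin-GG(EEEEY)10EE; ATP 10 μM (FLT3-ITD, FLT3-D835Y) or 100 μM (c-KIT). Detection: AlphaScreen PY20 kit, 10 μg/mL beads, RT 20 + 60 min. Readout 580 nm; IC50.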

T1 sequence (P10721 26-976): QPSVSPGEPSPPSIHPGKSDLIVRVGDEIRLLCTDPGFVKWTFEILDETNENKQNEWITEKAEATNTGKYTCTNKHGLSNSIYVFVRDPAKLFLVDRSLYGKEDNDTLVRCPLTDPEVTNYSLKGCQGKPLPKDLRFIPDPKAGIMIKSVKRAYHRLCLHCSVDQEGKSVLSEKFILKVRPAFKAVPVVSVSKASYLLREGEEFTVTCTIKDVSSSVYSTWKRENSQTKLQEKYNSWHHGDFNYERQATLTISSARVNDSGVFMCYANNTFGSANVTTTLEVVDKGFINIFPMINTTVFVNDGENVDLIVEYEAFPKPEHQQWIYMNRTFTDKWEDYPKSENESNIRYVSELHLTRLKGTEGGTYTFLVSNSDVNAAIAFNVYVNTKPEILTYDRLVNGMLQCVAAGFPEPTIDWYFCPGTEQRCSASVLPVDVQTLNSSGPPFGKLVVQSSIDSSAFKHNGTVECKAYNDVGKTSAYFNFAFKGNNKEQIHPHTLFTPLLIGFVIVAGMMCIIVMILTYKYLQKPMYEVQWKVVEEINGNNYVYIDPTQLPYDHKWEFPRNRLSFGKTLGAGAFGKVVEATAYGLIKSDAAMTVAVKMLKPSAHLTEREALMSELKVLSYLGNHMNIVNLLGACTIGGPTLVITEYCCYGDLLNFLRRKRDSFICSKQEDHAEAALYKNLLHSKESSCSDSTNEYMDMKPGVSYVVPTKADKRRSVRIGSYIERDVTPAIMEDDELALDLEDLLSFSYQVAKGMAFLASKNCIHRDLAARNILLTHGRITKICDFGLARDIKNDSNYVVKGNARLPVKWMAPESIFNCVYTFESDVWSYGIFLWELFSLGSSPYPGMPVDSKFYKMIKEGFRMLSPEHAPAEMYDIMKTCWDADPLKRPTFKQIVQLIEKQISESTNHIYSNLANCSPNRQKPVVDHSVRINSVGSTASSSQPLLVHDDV

Row | Structure (SMILES) | IC50 [1] | IC50 [2]
1 | CCOc1n[nH]c2ncc(-c3ccc(CC(=O)Nc4cnc(OC)c(C(F)(F)F)c4)cc3)cc12 [Compound P-0213, 2-(4-(3-ethoxy-1H-pyrazolo[3,4-b]pyridin-5-yl)phenyl)-N-(6-methoxy-5-(trifluoromethyl)pyridin-3-yl)acetamide] | 0.0001 to 10 µM | 0.0001 to 10 µM
2 | COc1ncc(NC(=O)Cc2ccc(-c3cnc4[nH]c(C#CC(C)(C)O)cc4c3)cc2)cc1C(F)(F)F [Compound P-0214, 2-(4-(2-(3-hydroxy-3-methylbut-1-yn-1-yl)-1H-pyrrolo[2,3-b]pyridin-5-yl)phenyl)-N-(6-methoxy-5-(trifluoromethyl)pyridin-3-yl)acetamide] | 0.0001 to 10 µM | 0.0001 to 10 µM
3 | COc1ncc(NC(=O)Cc2ccc(-c3cnc4[nH]nc(NC(=O)C(F)(F)F)c4c3)cc2)cc1C(F)(F)F [Compound P-0215, 2,2,2-trifluoro-N-[5-[4-[2-[[6-methoxy-5-(trifluoromethyl)-3-pyridyl]amino]-2-oxo-ethyl]phenyl]-1H-pyrazolo[3,4-b]pyridin-3-yl]acetamide] | 0.0001 to 10 µM | 0.0001 to 10 µM
4 | COc1ncc(NC(=O)Cc2ccc(-c3cnc4[nH]nc(N)c4c3)cc2)cc1C(F)(F)F [Compound P-0216, 2-(4-(3-amino-1H-pyrazolo[3,4-b]pyridin-5-yl)phenyl)-N-(6-methoxy-5-(trifluoromethyl)pyridin-3-yl)acetamide] | 0.0001 to 10 µM | 0.0001 to 10 µM
5 | CCOc1n[nH]c2ncc(-c3ccc(CC(=O)Nc4cnc(C)c(C(F)(F)F)c4)cc3)cc12 [Compound P-0217, 2-[4-(3-ethoxy-1H-pyrazolo[3,4-b]pyridin-5-yl)phenyl]-N-[6-methyl-5-(trifluoromethyl)-3-pyridyl]acetamide] | 0.0001 to 10 µM | 0.0001 to 10 µM
6 | COc1n[nH]c2ncc(-c3ccc(CC(=O)Nc4cnc(C)c(C(F)(F)F)c4)cc3)cc12 [Compound P-0218, 2-[4-(3-methoxy-1H-pyrazolo[3,4-b]pyridin-5-yl)phenyl]-N-[6-methyl-5-(trifluoromethyl)-3-pyridyl]acetamide] | 0.0001 to 10 µM | 0.0001 to 10 µM
7 | Cc1ncc(NC(=O)Cc2ccc(-c3cnc4[nH]c(C#CC(C)(C)O)cc4c3)cc2)cc1C(F)(F)F [Compound P-0220, 2-[4-[2-(3-hydroxy-3-methyl-but-1-ynyl)-1H-pyrrolo[2,3-b]pyridin-5-yl]phenyl]-N-[6-methyl-5-(trifluoromethyl)-3-pyridyl]acetamide] | 0.0001 to 10 µM | 0.0001 to 10 µM
8 | COc1ncc(NC(=O)Cc2ccc(-c3cnc(Nc4cn[nH]c4C)nc3)cc2)cc1C(F)(F)F [Compound P-0221, N-[6-methoxy-5-(trifluoromethyl)-3-pyridyl]-2-[4-[2-[(5-methyl-1H-pyrazol-4-yl)amino]pyrimidin-5-yl]phenyl]acetamide] | 0.0001 to 10 µM | 0.0001 to 10 µM
9 | COCCn1cc(Nc2ncc(-c3ccc(CC(=O)Nc4cc(C(F)(F)F)ccn4)cc3)cn2)cn1 [Compound P-0222, 2-[4-[2-[[1-(2-methoxyethyl)pyrazol-4-yl]amino]pyrimidin-5-yl]phenyl]-N-[4-(trifluoromethyl)-2-pyridyl]acetamide] | 0.0001 to 10 µM | 0.0001 to 10 µM
10 | Cc1nn(C)cc1Nc1ncc(-c2ccc(CC(=O)Nc3cnc(C)c(C(F)(F)F)c3)cc2)cn1 [Compound P-0228, 2-[4-[2-[(1,3-dimethylpyrazol-4-yl)amino]pyrimidin-5-yl]phenyl]-N-[6-methyl-5-(trifluoromethyl)-3-pyridyl]acetamide] | 0.0001 to 10 µM | 0.0001 to 10 µM
11 | Cc1ncc(NC(=O)Cc2ccc(-c3cnc(Nc4cnn(C)c4C)nc3)cc2)cc1C(F)(F)F [Compound P-0229, 2-[4-[2-[(1,5-dimethylpyrazol-4-yl)amino]pyrimidin-5-yl]phenyl]-N-[6-methyl-5-(trifluoromethyl)-3-pyridyl]acetamide] | 0.0001 to 10 µM | 0.0001 to 10 µM
12 | COc1ncc(NC(=O)Cc2ccc(-c3cnc4[nH]nc(Cl)c4c3)cc2)cc1C(F)(F)F [Compound P-0230, 2-[4-(3-chloro-1H-pyrazolo[3,4-b]pyridin-5-yl)phenyl]-N-[6-methoxy-5-(trifluoromethyl)-3-pyridyl]acetamide] | 0.0001 to 10 µM | 0.0001 to 10 µM
13 | O=C(Cc1ccc(-c2cnc(Nc3cnn(C4CC4)c3)nc2)cc1)Nc1cncc(C(F)(F)F)c1 [Compound P-0231, 2-[4-[2-[(1-cyclopropylpyrazol-4-yl)amino]pyrimidin-5-yl]phenyl]-N-[5-(trifluoromethyl)-3-pyridyl]acetamide] | 0.0001 to 10 µM | 0.0001 to 10 µM
14 | Cc1ncc(NC(=O)Cc2ccc(-c3cnc(Nc4cnn(C5CC5)c4)nc3)cc2)cc1C(F)(F)F [Compound P-0232, 2-[4-[2-[(1-cyclopropylpyrazol-4-yl)amino]pyrimidin-5-yl]phenyl]-N-[6-methyl-5-(trifluoromethyl)-3-pyridyl]acetamide] | 0.0001 to 10 µM | 0.0001 to 10 µM
15 | O=C(Cc1ccc(-c2cnc(Nc3cnn(C4CC4)c3)nc2)cc1)Nc1cnc(Cl)c(C(F)(F)F)c1 [Compound P-0233, N-[6-chloro-5-(trifluoromethyl)-3-pyridyl]-2-[4-[2-[(1-cyclopropylpyrazol-4-yl)amino]pyrimidin-5-yl]phenyl]acetamide] | 0.0001 to 10 µM | 0.0001 to 10 µM
16 | COc1ncc(NC(=O)Cc2ccc(-c3cnc(Nc4cnn(C5CC5)c4)nc3)cc2)cc1C(F)(F)F [Compound P-0234, 2-[4-[2-[(1-cyclopropylpyrazol-4-yl)amino]pyrimidin-5-yl]phenyl]-N-[6-methoxy-5-(trifluoromethyl)-3-pyridyl]acetamide] | 0.0001 to 10 µM | 0.0001 to 10 µM

Results, then the compound that gave them:

Row | IC50 [1] | IC50 [2] | Structure (SMILES)
17 | 0.0001 to 10 µM | 0.0001 to 10 µM | O=C(Cc1ccc(-c2cnc(Nc3cnn(C4CC4)c3)nc2)cc1)Nc1ccc(C(F)(F)F)nc1 [Compound P-0235, 2-[4-[2-[(1-cyclopropylpyrazol-4-yl)amino]pyrimidin-5-yl]phenyl]-N-[6-(trifluoromethyl)-3-pyridyl]acetamide]
18 | 0.0001 to 10 µM | 0.0001 to 10 µM | O=C(Cc1ccc(-c2cnc(Nc3cnn(C4CC4)c3)nc2)cc1)Nc1ccc(C(F)(F)F)cn1 [Compound P-0236, 2-[4-[2-[(1-cyclopropylpyrazol-4-yl)amino]pyrimidin-5-yl]phenyl]-N-[5-(trifluoromethyl)-2-pyridyl]acetamide]
19 | 0.0001 to 10 µM | 0.0001 to 10 µM | O=C(Cc1ccc(-c2cnc(Nc3cnn(C4CC4)c3)nc2)cc1)Nc1cc(C(F)(F)F)ccn1 [Compound P-0237, 2-[4-[2-[(1-cyclopropylpyrazol-4-yl)amino]pyrimidin-5-yl]phenyl]-N-[4-(trifluoromethyl)-2-pyridyl]acetamide]
20 | 0.0001 to 10 µM | 0.0001 to 10 µM | O=C(Cc1ccc(-c2cnc(Nc3cnn(C4CC4)c3)nc2)cc1F)Nc1cncc(C(F)(F)F)c1 [Compound P-0238, 2-[4-[2-[(1-cyclopropylpyrazol-4-yl)amino]pyrimidin-5-yl]-2-fluoro-phenyl]-N-[5-(trifluoromethyl)-3-pyridyl]acetamide]
21 | 0.0001 to 10 µM | 0.0001 to 10 µM | Cc1ncc(NC(=O)Cc2ccc(-c3cnc(Nc4cnn(C5CC5)c4)nc3)cc2F)cc1C(F)(F)F [Compound P-0239, 2-[4-[2-[(1-cyclopropylpyrazol-4-yl)amino]pyrimidin-5-yl]-2-fluoro-phenyl]-N-[6-methyl-5-(trifluoromethyl)-3-pyridyl]acetamide]
22 | 0.0001 to 10 µM | 0.0001 to 10 µM | O=C(Cc1ccc(-c2cnc(Nc3cnn(C4CC4)c3)nc2)cc1F)Nc1cnc(Cl)c(C(F)(F)F)c1 [Compound P-0240, N-[6-chloro-5-(trifluoromethyl)-3-pyridyl]-2-[4-[2-[(1-cyclopropylpyrazol-4-yl)amino]pyrimidin-5-yl]-2-fluoro-phenyl]acetamide]
23 | 0.0001 to 10 µM | 0.0001 to 10 µM | COc1ncc(NC(=O)Cc2ccc(-c3cnc(Nc4cnn(C5CC5)c4)nc3)cc2F)cc1C(F)(F)F [Compound P-0241, 2-[4-[2-[(1-cyclopropylpyrazol-4-yl)amino]pyrimidin-5-yl]-2-fluoro-phenyl]-N-[6-methoxy-5-(trifluoromethyl)-3-pyridyl]acetamide]
24 | 0.0001 to 10 µM | 0.0001 to 10 µM | O=C(Cc1ccc(-c2cnc(Nc3cnn(C4CC4)c3)nc2)cc1F)Nc1ccc(C(F)(F)F)nc1 [Compound P-0242, 2-[4-[2-[(1-cyclopropylpyrazol-4-yl)amino]pyrimidin-5-yl]-2-fluoro-phenyl]-N-[6-(trifluoromethyl)-3-pyridyl]acetamide]
25 | 0.0001 to 10 µM | 0.0001 to 10 µM | O=C(Cc1ccc(-c2cnc(Nc3cnn(C4CC4)c3)nc2)cc1F)Nc1ccc(C(F)(F)F)cn1 [Compound P-0243, 2-[4-[2-[(1-cyclopropylpyrazol-4-yl)amino]pyrimidin-5-yl]-2-fluoro-phenyl]-N-[5-(trifluoromethyl)-2-pyridyl]acetamide]
26 | 0.0001 to 10 µM | 0.0001 to 10 µM | O=C(Cc1ccc(-c2cnc(Nc3cnn(C4CC4)c3)nc2)cc1F)Nc1cc(C(F)(F)F)ccn1 [Compound P-0244, 2-[4-[2-[(1-cyclopropylpyrazol-4-yl)amino]pyrimidin-5-yl]-2-fluoro-phenyl]-N-[4-(trifluoromethyl)-2-pyridyl]acetamide]
27 | 0.0001 to 10 µM | 0.0001 to 10 µM | CCn1cc(Nc2ncc(-c3ccc(CC(=O)Nc4cnc(OC)c(C(F)(F)F)c4)cc3F)cn2)cn1 [Compound P-0246, 2-[4-[2-[(1-ethylpyrazol-4-yl)amino]pyrimidin-5-yl]-3-fluoro-phenyl]-N-[6-methoxy-5-(trifluoromethyl)-3-pyridyl]acetamide]
